Measurements published in the PolyMetriX glass transition set.
± gives the standard deviation of the reports.

| glass transition temperature [°C] | Structure (SMILES) |
| --- | --- |
| 365.00 | *Nc1cccc(NC(=O)c2cc(NC(=O)C34CC5CC(CC(C5)C3)C4)cc(C(*)=O)c2)c1 (repeat unit) |
| 37.00 | *OCCOC(=O)CCCC(=O)OCCOc1nc(-c2ccc(OCCCC)cc2)nc(*)c1-c1ccc(OCCCC)cc1 (repeat unit) |
| 78.00 | *Oc1ccc(CC(NC(=O)CCc2ccc(OC(=O)CCC(*)=O)cc2)C(=O)OCc2ccccc2)cc1 (repeat unit) |
| 44.00 | *CCN(CCCCCCOc1ccc(/N=N/c2ccccc2)cc1)CCOC(=O)Nc1ccc(Cc2ccc(NC(=O)O*)cc2)cc1 (repeat unit) |
| 115.00 | *CCNC(=O)c1ccc([Si](CCCC)(CCCC)c2ccc(C(=O)NCCN(*)c3ccc(/C=C/c4ccc([N+](=O)[O-])cc4)cc3)cc2)cc1 (repeat unit) |
| 128.00 | *Oc1ccc(/N=C/c2ccc(Oc3ccc(C(c4ccc(Oc5ccc(/C=N/c6ccc(Oc7ccc(-c8ccc(*)cc8)cc7)cc6)cc5)cc4)(C(F)(F)F)C(F)(F)F)cc3)cc2)cc1 (repeat unit) |
| 255.00 | *C(=O)c1ccc2nc(-c3ccccc3)c(-c3ccc(N4C(=O)c5ccc(C(=O)c6ccc7c(c6)C(=O)N(c6ccc(-c8nc9cc(*)ccc9nc8-c8ccccc8)cc6)C7=O)cc5C4=O)cc3)nc2c1 (repeat unit) |
| 150.00 | *Oc1ccc(Cc2ccc(OC(=O)c3cccc(C(*)=O)c3)cc2)cc1 (repeat unit) |
| 169.50 | *c1cccc(N2C(=O)C(=O)N(CCCCCCN3C(=O)C(=O)N(*)C3=O)C2=O)n1 (repeat unit) |
| 228.50 | *Oc1ccc(NC(=O)c2cccc(C(=O)Nc3ccc(Oc4ccc(C(c5ccc(*)cc5)(C(F)(F)F)C(F)(F)F)cc4)cc3)c2)cc1 (repeat unit) |
| 183.50 | *c1cccc(-n2c(=O)c3cc4c(=O)n(*)c(=O)c4cc3c2=O)n1 (repeat unit) |
| 294.50 | *c1ccc(S(=O)(=O)c2ccc(-n3nc(-c4ccccc4)c4ccc(Oc5ccc6c(-c7ccccc7)nn(*)c(=O)c6c5)cc4c3=O)cc2)cc1 (repeat unit) |
| 331.00 | *C(=O)c1ccc2c(c1)C(=O)N(c1ccc3c(c1)C(=O)c1cc(N4C(=O)c5ccc(*)cc5C4=O)ccc1-3)C2=O (repeat unit) |
| 30.00 | *Oc1ccc(CC(NC(=O)CCc2ccc(OC(=O)CCCCCCCCC(*)=O)cc2)C(=O)OCCCC)cc1 (repeat unit) |
| 76.00 | *O[Si](*)(C)CCc1cc(C(=O)Oc2ccc(OCCCCCCCCCCCC)cc2)ccc1-c1ccc(C(=O)Oc2ccc(OCCCCCCCCCCCC)cc2)cc1 (repeat unit) |
| 10.00 | *CCCCCCCCCCN/C(=N/*)c1ccccc1 (repeat unit) |
| 217.00 | *CC(*)c1ccc(S(=O)(=O)OCCC)cc1 (repeat unit) |
| 254.00 | *c1cc(C(=O)OCC)cc(N2C(=O)CC(C3Cc4ccccc4C4C(=O)N(*)C(=O)C43)C2=O)c1 (repeat unit) |
| -60.00 | *CC(CC)(CC)COC(=O)Nc1ccc(C)c(NC(=O)O*)c1 (repeat unit) |

| glass transition temperature [°C] | Structure (SMILES) |
| --- | --- |
| 58.00 | *C(=O)OCCCCCCCCCCOC(=O)c1ccc(N2C(=O)c3ccc(*)cc3C2=O)cc1 (repeat unit) |
| 167.00 | *Oc1ccc(S(=O)(=O)c2ccc(Oc3ccc(C(=C)c4ccc(*)cc4)cc3)cc2)cc1 (repeat unit) |
| 101.00 | *CCCCCCCCCCCCN1C(=O)c2ccc(C(c3ccc4c(c3)C(=O)N(*)C4=O)(C(F)(F)F)C(F)(F)F)cc2C1=O (repeat unit) |
| 334.00 | *c1ccc(Oc2ccc(-c3ccc(Oc4ccc(-c5nnc(*)c6c(-c7ccccc7)c(-c7ccc8ccccc8c7)c(-c7ccc8ccccc8c7)c(-c7ccccc7)c56)cc4)cc3)cc2)cc1 (repeat unit) |
| 46.00 | *Nc1ccc(Cc2ccc(NC(=O)NCCCCCCCCCCNC(*)=O)cc2)cc1 (repeat unit) |
| 85.00 | *CCCCCCCCCCOc1ccc(/C=C2\CCC/C(=C\c3ccc(O*)cc3)C2=O)cc1 (repeat unit) |
| 137.50 | *CC(O)COc1ccc(C(C)(C)c2ccc(OCC(O)COc3c(C)cc(S(=O)(=O)c4cc(C)c(O*)c(C)c4)cc3C)cc2)cc1 (repeat unit) |
| 38.00 | *CC(*)C(=O)Oc1cccc(C(=O)OC)c1 (repeat unit) |
| 151.00 | *Oc1ccc(S(=O)c2ccc(Oc3ccc(/C=N/N=C/c4ccc(*)cc4)cc3)cc2)cc1 (repeat unit) |
| 145.00 | *C(=O)Nc1ccc(S(=O)(=O)c2ccc(N3C(=O)CC(N4C(=O)c5ccc(*)cc5C4=O)C3=O)cc2)cc1 (repeat unit) |
| 230.00 | *c1ccc(Oc2ccc(-c3ccc(Oc4ccc(-c5nc(-c6ccccn6)nnc5*)cc4)cc3)cc2)cc1 (repeat unit) |
| 27.50 | *Oc1ccc(CC(NC(=O)CCc2ccc(OC(=O)CCCC(*)=O)cc2)C(=O)OCCCCCCCCCCCC)cc1 (repeat unit) |
| 266.50 | *c1ccc2c(c1)C(=O)N(c1cc(C(c3ccc(OC(C)=O)c(N4C(=O)c5ccc(C(*)(C(F)(F)F)C(F)(F)F)cc5C4=O)c3)(C(F)(F)F)C(F)(F)F)ccc1OC(C)=O)C2=O (repeat unit) |
| -55.00 | *O[Si](*)(CCCOCCOC)CCCOCCOC (repeat unit) |
| 283.00 | *Oc1ccc(OC(=O)c2ccc(OC(=O)c3ccc(C(=O)Oc4ccc(C(*)=O)cc4)cc3)cc2)cc1 (repeat unit) |
| 87.00 | *CCCCCCCNC(=O)C(OC)C(OC)C(=O)N* (repeat unit) |
| 290.00 | *OC(=O)c1ccc(C(=O)Oc2ccc3c(c2)Oc2cc(*)ccc2C32c3ccccc3-c3ccccc32)cc1 (repeat unit) |
| 243.00 | *c1ccc(-c2cc(-c3ccc(-c4ccccc4)cc3)cc(-c3ccc(N4C(=O)c5ccc(NC(=O)Nc6ccc(NC(=O)Nc7ccc8c(c7)C(=O)N(*)C8=O)cc6)cc5C4=O)cc3)n2)cc1 (repeat unit) |
| 59.00 | *CC(*)(C)C(=O)OCCCCCCCCCCCOc1ccc(/N=N/c2ccc(OC(=O)c3ccc4c(c3)OCCOCCOCCOCCO4)cc2)cc1 (repeat unit) |

| Structure (SMILES) | glass transition temperature [°C] |
| --- | --- |
| *OP(=O)(Oc1cccc2c(*)cccc12)OC1CCCCC1 (repeat unit) | 134.00 |
| *CCC(=O)N* (repeat unit) [Poly(propano-3-lactam)] | 128.17 ± 24 |
| *CCCCCC(Cl)C(*)Cl (repeat unit) | -17.00 |
| *CCCCCCCC(=O)N* (repeat unit) | 37.00 |
| *CCOCC(CCl)O* (repeat unit) | -40.00 |
| *CCCCCCCC(*)C (repeat unit) | -58.00 |
| *CCOC(=O)/C=C/C(=O)O* (repeat unit) | -10.00 |
| *CCOC(=O)c1ccccc1C(=O)O* (repeat unit) [Poly(ethylene phthalate)] | 60.17 ± 51 |
| *CCCCCCOC(=O)C(CCCCCCP(=O)(OCC)OCC)C(=O)OCCCCCCOc1ccc(-n2on2-c2ccc(O*)cc2)cc1 (repeat unit) | 9.00 |
